Assays:
Type in all cases: functional, T cell line
[1] = Induction of anti-CD3/CD28 antibodies-stimulated human T cell activation at 4 uM assessed fold increase in IL-2 secretion measured by ELISA assay
[2] = Induction of anti-CD3/CD28 antibodies-stimulated human T cell activation at 1 uM assessed fold increase in IL-2 secretion measured by ELISA assay
[3] = Induction of anti-CD3/CD28 antibodies-stimulated human T cell activation at 0.3 uM assessed fold increase in IL-2 secretion measured by ELISA assay
[4] = Induction of anti-CD3 antibodies-stimulated human T cell activation at 8 uM assessed fold increase in IL-2 secretion measured by ELISA assay; also: reference of the scale not given here
[5] = Induction of anti-CD3 antibodies-stimulated human T cell activation at 1 uM assessed fold increase in IL-2 secretion measured by ELISA assay; also: reference of the scale not given here
[6] = Induction of anti-CD3/CD28 antibodies-stimulated human T cell activation at 4 uM assessed fold increase in CD25 expression measured by ELISA assay
[7] = Induction of anti-CD3/CD28 antibodies-stimulated human T cell activation at 1 uM assessed fold increase in CD25 expression measured by ELISA assay
[8] = Induction of anti-CD3/CD28 antibodies-stimulated human T cell activation at 0.3 uM assessed fold increase in CD25 expression measured by ELISA assay
[9] = Induction of anti-CD3 antibodies-stimulated human T cell activation at 8 uM assessed fold increase in CD25 expression measured by ELISA assay; also: reference of the scale not given here
[10] = Induction of anti-CD3 antibodies-stimulated human T cell activation at 1 uM assessed fold increase in CD25 expression measured by ELISA assay; also: reference of the scale not given here

## C[C@H](Cc1nncn1C)c1cccc(NC(=O)c2cncc(C(F)(F)F)n2)c1
[1]
  fold change (FC): 5
[2]
  fold change (FC): 2.51
[3]
  fold change (FC): 1.01
[4]
  fold change (FC): 0.051
[5]
  fold change (FC): 0.051
[6]
  fold change (FC): >=1.76
[7]
  fold change (FC): >=1.76
[8]
  fold change (FC): >=1.76
[9]
  fold change (FC): >=1.001
[10]
  fold change (FC): 0.601

## C[C@H](CO)Nc1cc([C@H](C)Cc2nncn2C)cc(N2Cc3c(cccc3C(F)(F)F)C2=O)n1
[1]
  fold change (FC): 5
[2]
  fold change (FC): 2.51
[3]
  fold change (FC): 1.01
[4]
  fold change (FC): >=0.201
[5]
  fold change (FC): 0.051
[6]
  fold change (FC): 1.31
[7]
  fold change (FC): 1.01
[8]
  fold change (FC): 1.01
[9]
  fold change (FC): >=1.001
[10]
  fold change (FC): 0.801

## Cc1nc2cc([C@H](C)Sc3nncn3C)cc(NC(=O)c3cccc(C(F)(F)F)n3)c2o1
[1]
  fold change (FC): >=7.5
[2]
  fold change (FC): 5
[3]
  fold change (FC): 2.51
[4]
  fold change (FC): >=0.201
[5]
  fold change (FC): <=0.05
[6]
  fold change (FC): >=1.76
[7]
  fold change (FC): 1.51
[8]
  fold change (FC): 1.31
[9]
  fold change (FC): >=1.001
[10]
  fold change (FC): 0.601

## Cc1cc(C(=O)Nc2cc([C@H](C)Sc3nncn3C)ccn2)nc(C(F)(F)F)c1
[1]
  fold change (FC): 1.01
[2]
  fold change (FC): 1.01
[3]
  fold change (FC): 1.01
[4]
  fold change (FC): 0.051
[5]
  fold change (FC): <=0.05
[6]
  fold change (FC): 1.01
[7]
  fold change (FC): <=1
[8]
  fold change (FC): <=1
[9]
  fold change (FC): 0.801
[10]
  fold change (FC): <=0.6

## C[C@H](Sc1nncn1C)c1ccc(F)c(NC(=O)c2cccc(C(F)(F)F)n2)c1
[1]
  fold change (FC): 2.51
[2]
  fold change (FC): 1.01
[3]
  fold change (FC): 1.01
[4]
  fold change (FC): 0.051
[5]
  fold change (FC): <=0.05
[6]
  fold change (FC): 1.01
[7]
  fold change (FC): 1.01
[8]
  fold change (FC): <=1
[9]
  fold change (FC): <=0.6
[10]
  fold change (FC): <=0.6

## COc1cc(C(=O)Nc2cccc([C@H](C)Sc3nncn3C)c2)nc(C(F)(F)F)c1
[1]
  fold change (FC): 5
[2]
  fold change (FC): 2.51
[3]
  fold change (FC): 2.51
[4]
  fold change (FC): >=0.201
[5]
  fold change (FC): 0.051
[6]
  fold change (FC): >=1.76
[7]
  fold change (FC): 1.51
[8]
  fold change (FC): 1.01
[9]
  fold change (FC): 0.801
[10]
  fold change (FC): 0.801

## C[C@H](Sc1nncn1C)c1cccc(N2Cc3c(cccc3C(F)(F)F)C2=O)c1
[1]
  fold change (FC): 1.01
[2]
  fold change (FC): <=1
[3]
  fold change (FC): <=1
[4]
  fold change (FC): <=0.05
[5]
  fold change (FC): <=0.05
[6]
  fold change (FC): 1.01
[7]
  fold change (FC): 1.01
[8]
  fold change (FC): <=1
[9]
  fold change (FC): 0.801
[10]
  fold change (FC): 0.601

## COc1cc(C(=O)Nc2cccc([C@H](C)Cc3nncn3C)c2)nc(C(F)(F)F)c1
[1]
  fold change (FC): 1.01
[2]
  fold change (FC): 1.01
[3]
  fold change (FC): 1.01
[4]
  fold change (FC): 0.101
[5]
  fold change (FC): 0.101
[6]
  fold change (FC): 1.01
[7]
  fold change (FC): 1.01
[8]
  fold change (FC): 1.01
[9]
  fold change (FC): 0.801
[10]
  fold change (FC): 0.801

## Cn1cnnc1[C@H](F)[C@](C)(F)c1cccc(N2Cc3c(cc(C4CC4)cc3C(F)(F)F)C2=O)c1
[1]
  fold change (FC): 2.51
[2]
  fold change (FC): 1.01
[3]
  fold change (FC): <=1
[4]
  fold change (FC): 0.101
[5]
  fold change (FC): 0.051
[6]
  fold change (FC): 1.01
[7]
  fold change (FC): 1.01
[8]
  fold change (FC): 1.01
[9]
  fold change (FC): >=1.001
[10]
  fold change (FC): 0.801

## C[C@H](Cc1nncn1C)c1cc(NC2CCOC2)nc(N2Cc3c(cccc3C(F)(F)F)C2=O)c1 (single isomer, unassigned)
[1]
  fold change (FC): 1.01
[2]
  fold change (FC): 1.01
[3]
  fold change (FC): 1.01
[4]
  fold change (FC): 0.151
[5]
  fold change (FC): 0.051
[6]
  fold change (FC): 1.01
[7]
  fold change (FC): 1.01
[8]
  fold change (FC): <=1
[9]
  fold change (FC): 0.801
[10]
  fold change (FC): 0.601

## C[C@H](Sc1nncn1C)c1ccnc(NC(=O)c2cc(Cl)cc(C(F)(F)F)n2)c1
[1]
  fold change (FC): <=1
[2]
  fold change (FC): 1.01
[3]
  fold change (FC): 1.01
[4]
  fold change (FC): <=0.05
[5]
  fold change (FC): <=0.05
[6]
  fold change (FC): <=1
[7]
  fold change (FC): 1.01
[8]
  fold change (FC): 1.01
[9]
  fold change (FC): 0.601
[10]
  fold change (FC): <=0.6

Source: ChEMBL document CHEMBL5050844 (2019)
